Test results reported in patent US4298613A, “Agricultural heterocyclic sulfenamides” (E. I. Du Pont de Nemours and Company, priority 1980, dated 1981).

How the values were obtained:
Venturia inaequalis [1] = assay: Control of apple scab in a photostability test (Example 15); type: in vivo; settings: 20 ppm, apple seedlings, 3500 foot candles xenon arc 16 hours, incubated 10-12 days
Procedure: Compounds of this invention are dissolved in acetone in an amount equal to 6% of the final volume and then suspended at a concentration of 20 ppm in purified water containing 25 ppm of the surfactant Alkanol® XC (sodium alkyl naphthalene sulfonate). This suspension is sprayed to the point of run-off on apple seedlings. When the foliage is dry, the plants are exposed to 3500 foot candles of light from a xenon arc source for a period of 16 hours. This light source approximates the spectrum of natural sunlight, and is used to assess photostability of the compounds of this invention on plant foliage. The following day, the plants are inoculated with a spore suspension of the fungus Venturia inaequalis and incubated in a growth room for 10-12 days. Disease ratings are then made. As shown in the following table, most of the compounds of this invention provided good disease control as the treated plants had fewer apple scab lesions in contrast to untreated plants which were covered with scab lesions. Phytotoxicity in the form of foliar burn was observed on some of the plants in association with disease control.

[2] = system: Puccinia graminis var. tritici; type: in vivo; settings: 20 ppm, wheat seedlings, 3500 foot candles xenon arc 16 hours, 24 hours humidity chamber then 7 days
Phytophthora infestans = settings: 5 ppm, tomato seedlings, incubated 4 days
Rhizoctonia solani = Rhizoctonia solani control on cotton, simulated in-the-row soil application (Example 12); type: in vivo; settings: 15 kg/ha, 8 days
Excerpt: Rhizoctonia solani-infested soil was placed in a 900 cc cup. Compounds of this invention were mixed at a rate of 15 kg/ha in a section 2" wide×2" deep×4" long to simulate an in-the-row application. Five cotton seeds were planted in the treated soil. After 8 days, the cotton plants were removed and rated for disease control.

[3] = system: Puccinia graminis var. tritici; type: in vivo; settings: 20 ppm, wheat seedlings, 1/2 inch simulated rainfall, 24 hours humidity chamber then 7 days
[4] = system: Puccinia graminis var. tritici; type: in vivo; settings: 20 ppm, wheat seedlings, 24 hours humidity chamber at 20° C. then 7 days
Venturia inaequalis [5] = assay: Control of apple scab in a residual wash-off test (Example 14); type: in vivo; settings: 20 ppm, apple seedlings, 1/2 inch simulated rainfall, incubated 10-12 days
Procedure: (§1) Compounds of this invention are dissolved in acetone in an amount equal to 6% of the final volume and then suspended at a concentration of 20 ppm in purified water containing 25 ppm of the surfactant Alkanol® XC (sodium alkyl naphthalene sulfonate). This suspension is sprayed to the point of run-off on apple seedlings. The following day, 1/2 inch of simulated rainfall is applied to the foliage of the plants. When the foliage is dry, the plants are inoculated with a spore suspension of the fungus Venturia inaequalis and incubated in a growth room for 10-12 days. Disease ratings are then made. […] Phytotoxicity in the form of foliar burn was observed on some of the plants in association with disease control.

Erysiphe cichoracearum [6] = assay: Control of cucumber powdery mildew in a photostability test (Example 18); type: in vivo; settings: 20 ppm, cucumber seedlings, 3500 foot candles xenon arc 16 hours, incubated 7 days
Procedure: Compounds of this invention are dissolved in acetone in an amount equal to 6% of the final volume and then suspended at a concentration of 20 ppm in purified water containing 25 ppm of the surfactant Alkanol® XC (sodium alkyl naphthalene sulfonate). This suspension is sprayed to the point of run-off in cucumber seedlings. When the foliage is dry, the plants are exposed to 3500 foot candles of light from a xenon arc source for a period of 16 hours. This light source approximates the spectrum of natural sunlight, and is used to assess photostability of the compounds of this invention on plant foliage. The following day, the plants are inoculated with a spore suspension of the fungus Erysiphe cichoracearum and incubated in a growth room for 7 days. Disease ratings are then made.

Erysiphe cichoracearum [7] = assay: Control of cucumber powdery mildew in a preventive test (Example 16); type: in vivo; settings: 20 ppm, cucumber seedlings, incubated 7 days
Procedure: (§2) Compounds of this invention are dissolved in acetone in an amount equal to 6% of the final volume and then suspended at a concentration of 20 ppm in purified water containing 25 ppm of the surfactant Alkanol® XC (sodium alkyl naphthalane sulfonate). This suspension is sprayed to the point of run-off on cucumber seedlings. The following day, the plants are inoculated with a spore suspension of the fungus Erysiphe cichoracearum and incubated in a growth room for 7 days. Disease ratings are then made.

Venturia inaequalis [8] = assay: Control of apple scab in a preventive test (Example 13); type: in vivo; settings: 20 ppm, apple seedlings, incubated 10-12 days
Procedure: as §1, with “day,” for “day, 1/2 inch of simulated rainfall is applied to the foliage of the plants. When the foliage is dry,”

Helminthosporium oryzae = assay: Control of rice Helminthosporium in a seed treatment test (Example 11); settings: 1.3 g per kilogram of seed, 18 days, rating based on percent germination
Procedure: Rice seed infected with Helminthosporium oryzae are treated with compounds of this invention at a rate of 1.3 g per kilogram of seed. This is accomplished by soaking infected seed for 1 minute in a suspension of the indicated compound dissolved in a solution containing 4% glycerine, 4% water, 0.02% Tween®20*, and 92% acetone. Treated seeds are placed on moist blotters and enclosed in plastic bags for 18 days at which time disease ratings are made based on percent germination.
*Tween®20 is a trademark of ICI Americas, Inc. and consists of polyoxytheylene (20) sorbitan monolaurate.

Erysiphe cichoracearum [9] = assay: Control of cucumber powdery mildew in a residual wash-off test (Example 17); type: in vivo; settings: 20 ppm, cucumber seedlings, 1/2 inch simulated rainfall, incubated 7 days
Procedure: as §2, with “naphthalene” for “naphthalane”, “day, 1/2 inch of simulated rainfall is applied to the foliage of the plants. When the foliage is dry,” for “day,”

house fly adults = assay: House fly adult mortality (Example 10); type: in vivo, Musca domestica (house fly); settings: concentration .01 (unit not given), acetone dispersion, 1 day, 25°±2° C., 50% RH
Procedure: Twenty-five house fly adults are secured in screened stainless steel ring cages and treated with acetone dispersions of N-[2-chloro-5-(trifluoromethyl)-phenyl]-N-[2,4-dinitro-6-(trifluoromethyl)phenyl]-3-nitro-2-pyridinesulfenamide at the indicated concentrations. The stock dispersion is prepared by dissolving appropriately weighed quantities of active ingredient in predetermined quantities of acetone. Further diluting with acetone yields the desired concentrations. After treating, the units are kept in a room maintained at 25°±2° C., 50% RH. Results are recorded at the end of 1 day.

two spotted mites = assay: Two-spotted mite mortality on red kidney bean plants (Example 9); type: in vivo; settings: Tetranychus urticae, 48 h, read-out: % Mortality (2 days)
Procedure: Test units consisted of plant pots containing two red kidney bean plants in the two-leaf stage per pot. The plants were infested with two spotted mites and sprayed to run-off with dispersions of N-[2-chloro-5-(trifluoromethyl)phenyl]-N-[2,4-dinitro-6-(trifluoromethyl)phenyl]-3-nitro-2-pyridinesulfenamide at the indicated concentrations. Dispersions were made by dissolving weighed quantities of the active ingredients in 10 ml of acetone and then diluting to volume with water containing 1:3000 of a surfactant, DuPonol® (a tradename of E. I. du Pont de Nemours & Co. for sodium alcohol sulfonate). Mortality was evaluated two days after spraying.

| SMILES | % Control Apple Scab in a Photo-stability test (Venturia inaequalis [1]) [%] | % Control Wheat Rust in a Photostability Test [2] [%] | % Control Tomato Late Blight in a Preventive Test (Phytophthora infestans) [%] | % Rhizoctonia solani control (Rhizoctonia solani) [%] | % Control Wheat Rust in a Residual Wash-off Test [3] [%] | % Control Wheat Rust in a Preventive Test [4] [%] | % Control of Apple Scab in a Residual Wash-Off Test (Venturia inaequalis [5]) [%] | % Control Cucumber Powdery Mildew in a Photostability Test (Erysiphe cichoracearum [6]) [%] | % Control Cucumber Powdery Mildew in a Preventive Test (Erysiphe cichoracearum [7]) [%] | % Control Apple Scab in a Preventive Test (Venturia inaequalis [8]) [%] | % Control of rice Helminthosporium in a seed treatment test (Helminthosporium oryzae) [%] | % Control Cucumber Powdery Mildew in a Residual Wash-Off Test (Erysiphe cichoracearum [9]) [%] | % Mortality (house fly adults) [%] | mortality at 0.00025 % (two spotted mites) [%] |
| --- | --- | --- | --- | --- | --- | --- | --- | --- | --- | --- | --- | --- | --- | --- |
| O=[N+]([O-])c1cc([N+](=O)[O-])c(N(Sc2nc3ccccc3s2)c2cc(C(F)(F)F)ccc2Cl)c(C(F)(F)F)c1 [N-[2-chloro-5-(trifluoromethyl)phenyl]-N-[2,4-dinitro-6-(trifluoromethyl)phenyl]-2-benzothiazolesulfenamide] | 15 | 83 | 0 | 50 | 85 | 97 | 43 | 15 | 60 | 43 | 0 | 68 |  |  |
| O=[N+]([O-])c1cc([N+](=O)[O-])c(N(Sc2ncccc2[N+](=O)[O-])c2cc(C(F)(F)F)ccc2Cl)c(C(F)(F)F)c1 [N-[2-chloro-5-(trifluoromethyl)phenyl]-N-[2,4-dinitro-6-(trifluoromethyl)phenyl]-3-nitro-2-pyridinesulfenamide] | 70 | 95 | 70 | 100 | 98 | 80 | 100 | 94 | 100 | 100 | 90 | 90 | 90 | 100 |
